Earlier results on one molecule are cited in patent US20220233487A1, “PREPARATION FOR USE IN WEIGHT MANAGEMENT COMPRISING OMEGA-3 FATTY ACID SALTS AND BASIC AMINO ACIDS” (Evonik Operations GmbH, priority 2019, published 2022).

In the case of `N=C(N)NCCC[C@H](N)C(=O)O` [L-arginine], the “pKa-values: pKCOOH” value is listed as “pKCOOH: 2.0”.
